Test results from ChEMBL document CHEMBL1146872, “Synthesis, biochemical evaluation and rationalisation of the inhibitory activity of a series of 4-hydroxyphenyl ketones as potential inhibitors of 17beta-hydroxysteroid dehydrogenase type 3 (17beta-HSD3)” (Bioorg Med Chem Lett, 2006).

What was measured:
[1] = target: 17beta-HSD3 (Rattus norvegicus); assay: Inhibition of 17beta-HSD3
[2] = test system: 17beta-HSD3 (Rattus norvegicus); assay: Inhibition of 17beta-HSD3 at 100 uM

IC50 [1] [µM]	inhibition [2] [%]	SMILES
4.97	81.4	CCCCCCCCCC(=O)c1ccc(O)cc1
7.55	78.9	CCCCCCCCCCCC(=O)c1ccc(O)cc1
18	76.4	CCCCCC(=O)c1ccc(O)cc1
6.52	82.6	CCCCCCCC(=O)c1ccc(O)cc1
7.84	80.3	CCCCCCC(=O)c1ccc(O)cc1
